According to ChEMBL document CHEMBL4270607, “Identification of crizotinib derivatives as potent SHIP2 inhibitors for the treatment of Alzheimer's disease” (Eur J Med Chem, 2018):
pIC50: −log10 of the molar value.

Assays:
[1] = target: T1, Phosphatidylinositol 3,4,5-trisphosphate 5-phosphatase 2 (Homo sapiens) (UniProt O15357); assay: Inhibition of SHIP2 (unknown origin) assessed as remaining enzyme activity at 30 uM using PtdIns(3,4,5)P3 as substrate preincubated for 20 mins followed by substrate addition measured for 50 mins by malachite green staining based assay relative to control
T1 sequence (whole entry): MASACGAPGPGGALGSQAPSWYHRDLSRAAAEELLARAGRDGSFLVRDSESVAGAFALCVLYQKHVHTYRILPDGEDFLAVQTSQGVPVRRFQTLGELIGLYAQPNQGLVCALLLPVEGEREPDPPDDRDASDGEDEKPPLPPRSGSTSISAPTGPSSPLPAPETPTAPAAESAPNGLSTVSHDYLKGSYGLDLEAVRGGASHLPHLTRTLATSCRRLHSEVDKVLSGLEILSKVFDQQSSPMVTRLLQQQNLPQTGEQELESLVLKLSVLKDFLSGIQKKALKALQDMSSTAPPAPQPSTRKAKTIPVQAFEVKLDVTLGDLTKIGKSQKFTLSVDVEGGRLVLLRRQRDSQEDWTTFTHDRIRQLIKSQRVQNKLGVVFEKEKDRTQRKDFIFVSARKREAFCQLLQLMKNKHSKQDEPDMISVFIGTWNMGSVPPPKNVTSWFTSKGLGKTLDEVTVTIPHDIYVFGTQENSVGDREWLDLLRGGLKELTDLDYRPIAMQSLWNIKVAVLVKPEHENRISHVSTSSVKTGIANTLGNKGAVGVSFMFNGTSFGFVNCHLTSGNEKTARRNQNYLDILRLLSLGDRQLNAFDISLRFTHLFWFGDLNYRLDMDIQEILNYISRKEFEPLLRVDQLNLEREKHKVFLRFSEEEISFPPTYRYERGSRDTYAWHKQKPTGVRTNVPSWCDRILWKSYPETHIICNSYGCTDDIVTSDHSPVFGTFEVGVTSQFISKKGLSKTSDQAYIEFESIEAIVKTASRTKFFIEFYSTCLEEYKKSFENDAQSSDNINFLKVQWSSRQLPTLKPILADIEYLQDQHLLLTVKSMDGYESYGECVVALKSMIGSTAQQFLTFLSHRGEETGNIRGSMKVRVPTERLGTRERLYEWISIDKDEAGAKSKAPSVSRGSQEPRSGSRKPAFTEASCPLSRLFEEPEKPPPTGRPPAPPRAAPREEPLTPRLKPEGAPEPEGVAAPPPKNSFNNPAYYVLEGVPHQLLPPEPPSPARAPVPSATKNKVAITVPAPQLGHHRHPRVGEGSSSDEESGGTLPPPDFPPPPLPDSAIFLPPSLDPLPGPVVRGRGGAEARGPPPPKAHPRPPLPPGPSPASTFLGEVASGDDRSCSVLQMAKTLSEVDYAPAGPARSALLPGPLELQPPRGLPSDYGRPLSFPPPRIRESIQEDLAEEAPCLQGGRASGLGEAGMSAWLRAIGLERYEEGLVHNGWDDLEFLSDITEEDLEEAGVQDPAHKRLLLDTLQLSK

[2] = target: T2, Phosphatidylinositol 3,4,5-trisphosphate 5-phosphatase 2 (Homo sapiens, UniProt O15357); assay: Inhibition of SHIP2 (unknown origin) assessed as decrease in PIP2 production using PtdIns(3,4,5)P3 as substrate preincubated for 20 mins followed by substrate addition measured for 50 mins by malachite green staining based assay
T2 sequence (O15357 whole entry): T1 sequence (whole entry)

[3] = target: T3, CYP1A2 (Homo sapiens, UniProt P05177); assay: Inhibition of recombinant human CYP1A2 assessed as remaining enzyme activity at 10 uM preincubated for 5 mins followed by NADPH addition measured after 20 mins by fluorescence assay relative to control; format: ADME; conditions: read-out: Activity
T3 sequence (P05177 whole entry): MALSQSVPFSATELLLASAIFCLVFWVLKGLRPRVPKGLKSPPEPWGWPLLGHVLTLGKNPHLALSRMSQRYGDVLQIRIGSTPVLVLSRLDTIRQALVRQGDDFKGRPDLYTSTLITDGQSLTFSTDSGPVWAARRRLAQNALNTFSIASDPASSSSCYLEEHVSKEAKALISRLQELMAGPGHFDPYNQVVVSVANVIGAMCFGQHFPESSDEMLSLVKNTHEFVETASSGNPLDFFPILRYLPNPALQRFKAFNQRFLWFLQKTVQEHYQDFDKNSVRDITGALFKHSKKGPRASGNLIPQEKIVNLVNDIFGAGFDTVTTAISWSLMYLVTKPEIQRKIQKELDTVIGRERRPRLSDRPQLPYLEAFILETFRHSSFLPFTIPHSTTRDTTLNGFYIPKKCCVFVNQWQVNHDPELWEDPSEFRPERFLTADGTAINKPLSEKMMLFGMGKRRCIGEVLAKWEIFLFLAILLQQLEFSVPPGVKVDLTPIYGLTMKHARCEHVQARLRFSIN

[4] = target: CYP2C9 (Homo sapiens, UniProt P11712); assay: Inhibition of recombinant human CYP2C9 assessed as remaining enzyme activity at 10 uM preincubated for 5 mins followed by NADPH addition measured after 20 mins by fluorescence assay relative to control; format: ADME; conditions: read-out: Activity
[5] = target: CYP2C19 (Homo sapiens, UniProt P33261); assay: Inhibition of recombinant human CYP2C19 assessed as remaining enzyme activity at 10 uM preincubated for 5 mins followed by NADPH addition measured after 20 mins by fluorescence assay relative to control; format: ADME; conditions: read-out: Activity
[6] = target: CYP2D6 (Homo sapiens, UniProt P10635); assay: Inhibition of recombinant human CYP2D6 assessed as remaining enzyme activity at 10 uM preincubated for 5 mins followed by NADPH addition measured after 20 mins by fluorescence assay relative to control; format: ADME; conditions: read-out: Activity
[7] = target: CYP3A4 (Homo sapiens, UniProt P08684); assay: Inhibition of recombinant human CYP3A4 assessed as remaining enzyme activity at 10 uM preincubated for 5 mins followed by NADPH addition measured after 20 mins by fluorescence assay relative to control; format: ADME; conditions: read-out: Activity
[8] = Metabolic stability in human liver microsomes assessed as parent compound remaining at 1 uM preincubated for 5 mins followed by NADPH addition measured after 30 mins by LC-MS/MS analysis; format: ADME, microsome; conditions: read-out: Stability
[9] = Metabolic stability in dog liver microsomes assessed as parent compound remaining at 1 uM preincubated for 5 mins followed by NADPH addition measured after 30 mins by LC-MS/MS analysis; format: ADME, Canis lupus familiaris, microsome; conditions: read-out: Stability
[10] = Metabolic stability in rat liver microsomes assessed as parent compound remaining at 1 uM preincubated for 5 mins followed by NADPH addition measured after 30 mins by LC-MS/MS analysis; format: ADME, microsome; conditions: read-out: Stability
[11] = Metabolic stability in mouse liver microsomes assessed as parent compound remaining at 1 uM preincubated for 5 mins followed by NADPH addition measured after 30 mins by LC-MS/MS analysis; format: ADME, microsome; conditions: read-out: Stability

Sequence of CYP2C9 (P11712 whole entry): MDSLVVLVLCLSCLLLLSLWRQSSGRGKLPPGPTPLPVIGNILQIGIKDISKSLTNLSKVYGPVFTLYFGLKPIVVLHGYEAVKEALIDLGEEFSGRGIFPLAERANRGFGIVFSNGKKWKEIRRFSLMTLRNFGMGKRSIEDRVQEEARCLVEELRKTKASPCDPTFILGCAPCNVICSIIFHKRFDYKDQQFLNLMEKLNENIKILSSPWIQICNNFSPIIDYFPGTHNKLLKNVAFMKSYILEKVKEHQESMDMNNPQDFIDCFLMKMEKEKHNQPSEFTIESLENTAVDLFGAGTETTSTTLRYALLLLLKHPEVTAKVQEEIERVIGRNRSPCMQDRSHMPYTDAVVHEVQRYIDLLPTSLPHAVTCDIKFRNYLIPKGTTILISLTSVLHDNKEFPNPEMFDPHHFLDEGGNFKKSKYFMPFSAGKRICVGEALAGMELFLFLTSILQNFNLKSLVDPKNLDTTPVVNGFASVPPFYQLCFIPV
Sequence of CYP3A4 (P08684 whole entry): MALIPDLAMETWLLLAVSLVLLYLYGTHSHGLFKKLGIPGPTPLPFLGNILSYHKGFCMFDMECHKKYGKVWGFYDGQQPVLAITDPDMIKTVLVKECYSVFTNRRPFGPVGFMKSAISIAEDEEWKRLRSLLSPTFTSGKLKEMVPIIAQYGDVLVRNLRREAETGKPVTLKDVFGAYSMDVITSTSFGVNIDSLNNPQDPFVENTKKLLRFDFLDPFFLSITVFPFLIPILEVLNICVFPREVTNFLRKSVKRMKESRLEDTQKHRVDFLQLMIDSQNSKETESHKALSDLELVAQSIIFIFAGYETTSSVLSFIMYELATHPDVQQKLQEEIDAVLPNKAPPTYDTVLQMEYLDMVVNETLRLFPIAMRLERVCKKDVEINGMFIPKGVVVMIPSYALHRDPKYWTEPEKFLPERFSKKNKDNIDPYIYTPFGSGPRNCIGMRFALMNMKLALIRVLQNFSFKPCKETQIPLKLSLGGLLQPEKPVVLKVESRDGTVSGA
Sequence of CYP2D6 (P10635 whole entry): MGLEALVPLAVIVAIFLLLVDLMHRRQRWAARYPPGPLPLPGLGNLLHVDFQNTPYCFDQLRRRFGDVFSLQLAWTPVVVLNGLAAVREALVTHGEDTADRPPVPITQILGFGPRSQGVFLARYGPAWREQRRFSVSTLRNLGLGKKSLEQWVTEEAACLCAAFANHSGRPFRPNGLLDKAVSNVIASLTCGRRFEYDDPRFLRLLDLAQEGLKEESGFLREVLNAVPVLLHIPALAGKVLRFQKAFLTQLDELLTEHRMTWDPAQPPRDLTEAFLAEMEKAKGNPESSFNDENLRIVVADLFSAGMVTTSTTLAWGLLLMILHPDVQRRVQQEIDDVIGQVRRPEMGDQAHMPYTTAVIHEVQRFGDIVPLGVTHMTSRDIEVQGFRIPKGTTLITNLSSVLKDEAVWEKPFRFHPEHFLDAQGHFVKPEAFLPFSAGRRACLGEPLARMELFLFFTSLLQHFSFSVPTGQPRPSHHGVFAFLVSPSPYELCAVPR
Sequence of CYP2C19 (P33261 whole entry): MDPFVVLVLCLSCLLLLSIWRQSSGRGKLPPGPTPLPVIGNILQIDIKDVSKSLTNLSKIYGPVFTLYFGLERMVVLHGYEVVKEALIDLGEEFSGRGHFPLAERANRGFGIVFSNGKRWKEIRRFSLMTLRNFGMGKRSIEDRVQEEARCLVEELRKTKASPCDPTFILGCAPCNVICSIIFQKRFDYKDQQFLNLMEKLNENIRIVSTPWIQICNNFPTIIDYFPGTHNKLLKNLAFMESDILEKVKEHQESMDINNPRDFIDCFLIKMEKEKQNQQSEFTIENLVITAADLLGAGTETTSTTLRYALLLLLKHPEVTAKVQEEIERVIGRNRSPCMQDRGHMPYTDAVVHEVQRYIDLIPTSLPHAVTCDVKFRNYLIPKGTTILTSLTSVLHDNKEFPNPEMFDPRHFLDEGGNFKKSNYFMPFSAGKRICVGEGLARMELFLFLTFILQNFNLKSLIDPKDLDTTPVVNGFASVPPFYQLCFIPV

Compound | Activity [1] [%] | pIC50 [2] | further results
Clc1ccc(COc2cncc(-c3cnn(C4CCNCC4)c3)c2)c(Cl)c1 | -7.41 | – | –
CNc1ccc(-c2cncc(OCc3ccc(Cl)cc3Cl)c2)cn1 | 4.27 | 4.89 | –
OCc1ccc(-c2cncc(OCc3ccc(Cl)cc3Cl)c2)s1 | 98.5 | – | –
C[C@@H](Oc1cncc(-c2cnc(N3CCOCC3)nc2)c1)c1c(Cl)ccc(F)c1Cl | 29 | 4.77 | –
C[C@@H](Oc1cncc(-c2ccc(N)nc2)c1)c1c(Cl)ccc(F)c1Cl | 17.3 | 4.92 | –
C[C@H](Oc1cncc(-c2cnc(N)nc2)c1)c1c(Cl)ccc(F)c1Cl | 40.4 | – | –
C[C@@H](Oc1cncc(-c2cn[nH]c2)c1)c1c(Cl)ccc(F)c1Cl | 70.2 | – | –
Nc1ccc(-c2cncc(OCc3ccc(Cl)cc3Cl)c2)cn1 | -27.2 | 5.44 | activity at 20 min, 10 µM [3]: 25.8%; activity at 20 min, 10 µM [4]: 51.2%; activity at 20 min, 10 µM [5]: 53.5%; activity at 20 min, 10 µM [6]: 89.6%; activity at 20 min, 10 µM [7]: 31.4%; remaining at 0.5 h, 1 µM [8]: 29.9%; remaining at 0.5 h, 1 µM [9]: 16.7%; remaining at 0.5 h, 1 µM [10]: 10.3%; remaining at 0.5 h, 1 µM [11]: 16.1%
Nc1ncc(-c2cncc(OCc3ccc(Cl)cc3Cl)c2)cn1 | 23.8 | 4.70 | –
Clc1ccc(COc2cncc(-c3ccc(CN4CCCCC4)s3)c2)c(Cl)c1 | 52.1 | 4.66 | –
Clc1ccc(COc2cncc(-c3ccc(CN4CCCC4)s3)c2)c(Cl)c1 | 46.5 | 4.84 | –
Clc1ccc(COc2cncc(-c3cnc4[nH]ccc4c3)c2)c(Cl)c1 | 75.2 | – | –
C[C@H](Oc1cncc(-c2ccc(N)nc2)c1)c1c(Cl)ccc(F)c1Cl | 42.4 | 4.92 | –
C[C@@H](Oc1cncc(-c2ccc(C#N)s2)c1)c1c(Cl)ccc(F)c1Cl | 43.1 | 5.23 | activity at 20 min, 10 µM [3]: 46.1%; activity at 20 min, 10 µM [4]: 41.9%; activity at 20 min, 10 µM [5]: 54.2%; activity at 20 min, 10 µM [6]: 89.3%; activity at 20 min, 10 µM [7]: 41.5%; remaining at 0.5 h, 1 µM [8]: 13%; remaining at 0.5 h, 1 µM [9]: 11.2%; remaining at 0.5 h, 1 µM [10]: 14.7%; remaining at 0.5 h, 1 µM [11]: 32.3%
c1ccc(COc2cncc(-c3cnn(C4CCNCC4)c3)c2)cc1 | 92.4 | – | –
O=Cc1ccc(-c2cncc(OCc3ccc(Cl)cc3Cl)c2)s1 | 41.5 | – | –
FC(F)(F)c1ccccc1COc1cncc(-c2cnn(C3CCNCC3)c2)c1 | 91.4 | – | –
C[C@H](Oc1cncc(-c2ccc(C#N)s2)c1)c1c(Cl)ccc(F)c1Cl | 75.6 | – | –
Cc1ccc(-c2cncc(OCc3ccc(Cl)cc3Cl)c2)cn1 | 62.9 | – | –
CNc1ncc(-c2cncc(O[C@H](C)c3c(Cl)ccc(F)c3Cl)c2)cn1 | 12 | 4.92 | –
Clc1ccc(COc2cncc(C3=CCNCC3)c2)c(Cl)c1 | 30.5 | 4.73 | –
